Data as given in ChEMBL document CHEMBL4261515, “An insight into the therapeutic potential of quinazoline derivatives as anticancer agents” (2017).

System: MCF7
Assay: Potency index, ratio of cisplatin IC50 to test compound IC50 for cytotoxicity against human MCF7 cells after 48 hrs by MTT assay
Type: functional

COc1ccc(/C=C2\N=C(c3ccco3)N(n3c(C)nc4c(Br)cc(Br)cc4c3=O)C2=O)cc1
Ratio IC50: 3
